From US10966426B2, “Herbicidal compositions comprising phenylpyrimidines” (BASF SE, priority 2016, dated 2021)
Where “and” joins values, the source holds several entries; their conditions need not be identical. Equal values may be shown once.

Legend:
Assay type in all cases: in vivo
Polygonum convolvulus = assay: greenhouse post-emergence treatment, POLCO; settings: POLCO
Outline: (§1)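 Scale 0–100 damage rating (100 = complete destruction of above-ground parts, 0 = normal growth), read 2 to 4 weeks after post-emergence application of aqueous spray liquor to plants 3–15 cm tall.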

Setaria viridis = assay: greenhouse post-emergence treatment, SETVI
Outline: (§2)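 Greenhouse test in humus-containing (~3.0%) loamy sand at species-dependent temperatures of 10-25° C. or 20-35° C.; treatments applied in water. Damage rated visually after 2–4 weeks (0 = none, 100 = complete destruction or no emergence).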

Echinocloa crus-galli = assay: greenhouse post-emergence treatment, ECHCG
Outline: as §1

Digitaria sanguinalis = assay: greenhouse post-emergence treatment, DIGSA
Outline: as §2

Bromus sterilis = assay: greenhouse post-emergence treatment, BROST
Outline: as §2

Brachiaria decumbens = assay: greenhouse post-emergence treatment, BRADC
Outline: (§3)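 Visual herbicidal effect (0–100) recorded over a 2 to 4 week test period after foliar treatment at plant heights of 3 to 15 cm. Expected combination effects derived by the Colby formula from single-component effects X and Y.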

Ambrosia elatior = assay: greenhouse post-emergence treatment, AMBEL
Outline: as §3

[1] = 20 DAT, Ex. 26 solo 62.5 gai/ha

Measured: % activity

COC(=O)c1nc(C2CC2)ncc1-c1ccc(F)cc1Cl [Ex. 26]
60% and 35% and 40%: Bromus sterilis; BROST, Ex. 26 solo 125 gai/ha, 20 DAT
0%: Polygonum convolvulus; 21 DAT, solo Ex. 26 62.5 gai/ha | Setaria viridis; [1] | Setaria viridis; 21 DAT, Ex. 26 solo 125 gai/ha | Setaria viridis; 21 DAT, Ex. 26 solo 250 gai/ha | Setaria viridis; Ex. 26 solo 62.5 gai/ha, 20 DAT, SETVI (pyridate table) | Setaria viridis; Ex. 26 solo 62.5 gai/ha, 20 DAT, SETVI (pyroxsulam table) | Setaria viridis; Ex. 26 solo 125 gai/ha, 20 DAT, SETVI (pyroxsulam table) | Digitaria sanguinalis; 20 DAT, DIGSA, Ex. 26 solo 125 gai/ha | Digitaria sanguinalis; [1] | Digitaria sanguinalis; 21 DAT, Ex. 26 solo 125 gai/ha | Digitaria sanguinalis; DIGSA, Ex. 26 solo 125 gai/ha, 20 DAT | Digitaria sanguinalis; Ex. 26 solo 62.5 gai/ha, 20 DAT, DIGSA | Bromus sterilis; [1] | Bromus sterilis; Ex. 26 solo 62.5 gai/ha, 20 DAT, BROST | Brachiaria decumbens; [1] | Brachiaria decumbens; BRADC, 21 DAT, solo Ex. 26 62.5 gai/ha | Brachiaria decumbens; Ex. 26 solo 62.5 gai/ha, 20 DAT, BRADC (pyroxsulam table) | Brachiaria decumbens; Ex. 26 solo 62.5 gai/ha, 21 DAT, BRADC | Brachiaria decumbens; Ex. 26 solo 125 gai/ha, 21 DAT, BRADC | Brachiaria decumbens; Ex. 26 solo, 125 gai/ha, 20 DAT, BRADC | Ambrosia elatior; 20 DAT, AMBEL, Ex. 26 solo 62.5 gai/ha | Ambrosia elatior; 20 DAT, AMBEL, Ex. 26 solo 125 gai/ha | Ambrosia elatior; [1] | Ambrosia elatior; 20 DAT, Ex. 26 solo 125 gai/ha | Ambrosia elatior; 20 DAT, Ex. 26 solo 250 gai/ha | Ambrosia elatior; 21 DAT, Ex. 26 solo 250 gai/ha | Ambrosia elatior; AMBEL, Ex. 26 solo 62.5 gai/ha, 20 DAT | Ambrosia elatior; AMBEL, Ex. 26 solo 125 gai/ha, 20 DAT | Ambrosia elatior; Ex. 26 solo 62.5 gai/ha, 20 DAT, AMBEL (pyridate table) | Ambrosia elatior; Ex. 26 solo 62.5 gai/ha, 20 DAT, AMBEL (pyroxsulam table) | Ambrosia elatior; Ex. 26 solo 125 gai/ha, 20 DAT, AMBEL (pyridate table) | Ambrosia elatior; Ex. 26 solo 125 gai/ha, 20 DAT, AMBEL (pyroxsulam table) | Ambrosia elatior; Ex. 26 solo 250 gai/ha, 21 DAT, AMBEL | Ambrosia elatior; Ex. 26 solo, 125 gai/ha, 21 DAT, AMBEL
25%: Setaria viridis; Ex. 26 solo 250 gai/ha, 20 DAT, SETVI (pyridate table) | Bromus sterilis; Ex. 26 solo, 250 gai/ha, 21 DAT, BROST
5%: Polygonum convolvulus; Ex. 26 solo, 125 gai/ha, 20 DAT | Bromus sterilis; 21 DAT, Ex. 26 solo 125 gai/ha | Bromus sterilis; Ex. 26 solo 125 gai/ha, 21 DAT, BROST | Bromus sterilis; Ex. 26 solo, 125 gai/ha, 20 DAT, BROST | Ambrosia elatior; Ex. 26 solo 62.5 gai/ha, 21 DAT, AMBEL
30% and 55%: Brachiaria decumbens; 20 DAT, BRADC, Ex. 26 solo 125 gai/ha
15%: Setaria viridis; Ex. 26 solo, 250 gai/ha, 21 DAT, SETVI | Bromus sterilis; Ex. 26 solo, 125 gai/ha, 21 DAT, BROST
30% and 40%: Brachiaria decumbens; BRADC, Ex. 26 solo 125 gai/ha, 20 DAT
70% and 65%: Echinocloa crus-galli; ECHCG, Ex. 26 solo 250 gai/ha, 20 DAT
20%: Setaria viridis; Ex. 26 solo 125 gai/ha, 20 DAT, SETVI (pyridate table) | Digitaria sanguinalis; DIGSA, 21 DAT, solo Ex. 26 62.5 gai/ha | Digitaria sanguinalis; DIGSA, 21 DAT, solo Ex. 26 125 gai/ha | Digitaria sanguinalis; DIGSA, 21 DAT, solo Ex. 26 250 gai/ha | Brachiaria decumbens; Ex. 26 solo 62.5 gai/ha, 20 DAT, BRADC (pyridate table) | Brachiaria decumbens; Ex. 26 solo 125 gai/ha, 20 DAT, BRADC (pyroxsulam table) | Ambrosia elatior; Ex. 26 solo 250 gai/ha, 20 DAT, AMBEL (pyroxsulam table) | Ambrosia elatior; Ex. 26 solo, 250 gai/ha, 21 DAT, AMBEL
80% and 60%: Echinocloa crus-galli; 20 DAT, Ex. 26 solo 250 gai/ha
85%: Polygonum convolvulus; Ex. 26 solo, 250 gai/ha, 21 DAT | Polygonum convolvulus; 21 DAT, solo Ex. 26 250 gai/ha
60%: Echinocloa crus-galli; ECHCG, Ex. 26 solo 62.5 gai/ha, 20 DAT | Brachiaria decumbens; 20 DAT, BRADC, Ex. 26 solo 250 gai/ha | Ambrosia elatior; AMBEL, Ex. 26 solo 250 gai/ha, 20 DAT
30%: Polygonum convolvulus; Ex. 26 solo, 250 gai/ha, 20 DAT | Brachiaria decumbens; Ex. 26 solo, 250 gai/ha, 20 DAT, BRADC
10%: Setaria viridis; Ex. 26 solo 250 gai/ha, 20 DAT, SETVI (pyroxsulam table) | Setaria viridis; Ex. 26 solo, 125 gai/ha, 21 DAT, SETVI | Setaria viridis; SETVI, 21 DAT, solo Ex. 26 62.5 gai/ha | Setaria viridis; SETVI, 21 DAT, solo Ex. 26 125 gai/ha | Brachiaria decumbens; BRADC, 21 DAT, solo Ex. 26 125 gai/ha | Brachiaria decumbens; Ex. 26 solo, 125 gai/ha, 21 DAT, BRADC
35% and 50% and 30%: Brachiaria decumbens; 20 DAT, Ex. 26 solo 250 gai/ha
35%: Polygonum convolvulus; Ex. 26 solo, 125 gai/ha, 21 DAT | Polygonum convolvulus; 21 DAT, solo Ex. 26 125 gai/ha | Bromus sterilis; 21 DAT, Ex. 26 solo 250 gai/ha | Bromus sterilis; Ex. 26 solo 250 gai/ha, 21 DAT, BROST | Brachiaria decumbens; Ex. 26 solo 250 gai/ha, 20 DAT, BRADC (pyroxsulam table)
60% and 35%: Bromus sterilis; 20 DAT, BROST, Ex. 26 solo 125 gai/ha
40%: Brachiaria decumbens; BRADC, 21 DAT, solo Ex. 26 250 gai/ha | Brachiaria decumbens; Ex. 26 solo 125 gai/ha, 20 DAT, BRADC (pyridate table) | Brachiaria decumbens; Ex. 26 solo, 250 gai/ha, 21 DAT, BRADC | Ambrosia elatior; 20 DAT, AMBEL, Ex. 26 solo 250 gai/ha
70%: Echinocloa crus-galli; 20 DAT, ECHCG, Ex. 26 solo 250 gai/ha
20% and 30%: Digitaria sanguinalis; 20 DAT, Ex. 26 solo 250 gai/ha
35% and 55% and 30%: Bromus sterilis; 20 DAT, Ex. 26 solo 250 gai/ha
50%: Echinocloa crus-galli; Ex. 26 solo 62.5 gai/ha, 21 DAT, ECHCG
65%: Echinocloa crus-galli; 20 DAT, ECHCG, Ex. 26 solo 125 gai/ha | Echinocloa crus-galli; ECHCG, Ex. 26 solo 125 gai/ha, 20 DAT | Echinocloa crus-galli; Ex. 26 solo 250 gai/ha, 20 DAT, ECHCG | Bromus sterilis; 20 DAT, BROST, Ex. 26 solo 250 gai/ha | Bromus sterilis; BROST, Ex. 26 solo 250 gai/ha, 20 DAT
